Results: patent US20230245725A1, “Means and Methods for the Prediction of Amyloid Core Sequences” (VIB VZW, priority 2020, published 2023)

Assays:
Apo-AI = molecular target: T1, Apo-AI (Homo sapiens, UniProt P02647); experiment: Th-T kinetics and endpoint fluorescence analysis of ApoA-I APR variant peptides; assay type: biochemical; details: triplicate
T1 construct: Endpoint fluorescence analysis; made in house; host or cells: solid phase peptide synthesis (no expression host)
Method: The Th-T kinetics (see FIGS. 12A and 12B) and the endpoint fluorescence analysis (see FIG. 11) were performed in triplicate for the peptides depicted in Table 5.
The Th-T kinetics (see FIGS. 13A and 13B) and the endpoint fluorescence analysis (see FIG. 11) were performed in triplicate for the peptides depicted in Table 6.
(§1) Amyloid aggregation was monitored using fluorescent spectroscopy binding assays. Th-T (Sigma) or pFTAA (Ebba Biotech AB) was added in half-area black 96-well microplates (Corning, USA) at a final concentration of 25 μM and 0.5 μM, respectively. Fluorescence intensity was measured in replicates (n=6) using a PolarStar Optima and a FluoStar Omega plate reader (BMG Labtech, Germany), equipped with an excitation filter at 440 nm and emission filters at 480 nm and 510 nm, respectively.

[1] = Thioflavin-T binding assay of synthetic peptides; assay type: physicochemical; details: 200 μM peptide, rotation 5 days, room temperature; Th-T 25 μM
Description: (§2) In the interest of improving the current description of the familiar amyloidogenic protein dataset, we selected and synthesised a subset of 96 peptides corresponding to strong aggregation prone regions identified in these proteins by Cordax. Apart of prediction strength, the peptide screen was also selectively constructed to ensure broad sequence variability and a wide distribution on the proteins of the dataset, with a preference for longer entries defined by inadequate previous characterisation. Peptide sequences were cross-checked and filtered to exclude overlapping sequences with previously identified amyloid regions and WALTZ-DB (see Table 2). The remaining selection of 96 peptides were synthesized using standard solid phase synthesis and their amyloid-forming properties were initially examined using Thioflavin-T (Th-T) or pFTAA binding, following rotating incubation for 5 days at room temperature. The binding assays are complementary, as Th-T and pFTAA are opposingly charged molecules, which increases the amyloid identification rate by overcoming cases of dye-specific failure to bind to amyloid surfaces based on charge repulsion. Under these conditions, 66 peptides successfully bind the specific dyes (FIGS. 3a & 3b) by forming fibrils with typical amyloid morphologies and properties that were verified using transmission electron microscopy (FIG. 3c) and Congo red staining for selected cases (FIG. 3d). As these dyes are known to yield false negatives, in particular for short peptides, all dye-negative peptides were further investigated using electron microscopy. During this scan, we recovered 19 additional sequences that were capable of forming sparse amyloid-like fibrils with shorter lengths (see FIG. 8).
(§3) Peptides derived from the Cordax validation set were synthesized using an Intavis Multipep RSi solid phase peptide synthesis robot. Peptide purity (>90%) was evaluated using RP-HPLC purification protocols and peptides were stored as ether precipitates (−20° C.). Peptide stocks were initially treated with 1,1,1,3,3,3-hexafluoro-isopropanol (HFIP) (Merck), then dissolved in traces of dimethyl sulfoxide (DMSO) (Merck) (<5%), filtered through 0.2 μm filters and finally in milli-Q water to reach a final concentration of 200 μM or up to 1 mM for dye-negative peptides. Dithiothreitol (DTT) (1 mM) was included in solutions of peptides spanning cysteine or methionine residues. All peptides were incubated at room temperature for a period of 5 days on a rotating wheel.
as §1

[2] = pFTAA binding assay of synthetic peptides; assay type: physicochemical; details: 200 μM peptide, rotation 5 days, room temperature; pFTAA 0.5 μM
Description: as §2, §3, §1

[3] = Transmission electron microscopy of peptide fibrils; assay type: physicochemical; details: amyloid-like fibrils after 5 days at room temperature
Description: as §2
(§4) Peptide solutions were incubated for 5 days at room temperature in order to form mature amyloid-like fibrils. Suspensions (5 μL) of each peptide solution were added on 400-mesh carbon-coated copper grids (Agar Scientific Ltd., England), following a glow-discharging step of 30 s to improve sample adsorption. Grids were washed with milli-Q water and negatively stained using uranyl acetate (2% w/v in milli-Q water). Grids were examined with a JEM-1400 120 kV transmission electron microscope (JEOL, Japan), operated at […].

[4] = Amyloid-forming properties of the peptide screen (overall call from Th-T, pFTAA, TEM); assay type: physicochemical; details: overall amyloid-forming call
Description: as §2, with “8). […]” for “8).”
as §3, §1, §4

Row | capping peptide: prevent the aggregation of Apo-AI (Apo-AI) | Th-T Binding [1] | pFTAA Binding [2] | TEM [3] | Amyloid [4] | Substance | induce the aggregation of Apo-AI (Apo-AI)
1 | – | – | – | – | – | LAIVYV (Aggregation inducer) [SEQ ID NO: 182, candidate aggregation inducing variant of ApoA-I APR] | most performant peptides which can induce the aggregation of Apo-AI
2 | – | – | – | – | – | LLTVYV (Aggregation inducer) [SEQ ID NO: 178, candidate aggregation inducing variant of ApoA-I APR] | most performant peptides which can induce the aggregation of Apo-AI
3 | most performant capping peptides | – | – | – | – | LWTVYV (Capping peptide) [SEQ ID NO: 175, candidate capping peptide variant of ApoA-I APR] | –
4 | most performant capping peptides | – | – | – | – | LYTVYV (Capping peptide) [SEQ ID NO: 176, candidate capping peptide variant of ApoA-I APR] | –
5 | – | ● | ● | ● | ● | YIILYN | –
6 | – | ● | ● | ● | ● | YQLVLQ | –
